From patent US6420119B1, “Methods of diagnosing and treating urinary incontinence relating to collagen proteolysis in pelvic supporting tissue” (The Board of Trustees of the Leland Stanford Jr. University, priority 1999, dated 2002)
Where a name gives a salt, the structure may show the parent alone.

Experiments:
procollagenase [1] = conditions: cultured rabbit uterine cervical fibroblasts; cited from earlier work
TIMPs = conditions: cultured rabbit uterine cervical fibroblasts; cited from earlier work
procollagenase [2] = conditions: pregnant guinea pig cervix; cited from earlier work
collagenase = conditions: human cervix, intravenous; cited from earlier work
[3] = patients with advanced lung carcinoma; relative to levels required for MMP inhibition in vitro; cited from earlier work
[4] = system: matrix metalloproteinases; conditions: human endometrium during the menstrual cycle; cited from earlier work
TIMP-3 = TIMP-3 mRNA expression in cultured human endometrial stromal cells; format: cell-based; conditions: vs control cells
Text: (§1) (a) GnRH Agonist: Trophoblast invasion is regulated in part by MMP-9 which can be inhibited by both TIMP-1 and TIMP-3 (25). […] Moreover, the expression of TIMP-1 appeared to be affected to a much greater extent than that of TIMP-3 (26).
(§2) Our laboratory has examined the ability of IL-1β and transforming growth factor-β (TGF-13) to regulate MMP-9, TIMP-1, and TIMP-3 mRNA expression in cultured human endometrial stromal cells (28). In these cultured endometrial stromal cells, TIMP-1 and TIMP-3 but not MMP-9 mRNA were expressed.

TIMP-1 = TIMP-1 mRNA expression in cultured human endometrial stromal cells; format: cell-based; conditions: vs control cells
Text: as §1, §2

MMP-9 = MMP-9 mRNA expression in cultured human endometrial stromal cells; format: cell-based
Text: as §2

| Compound | levels of procollagenase in the culture medium (procollagenase [1]) | level of TIMPs in the culture media (TIMPs) | TIMP-3 mRNA expression (TIMP-3) | TIMP-1 mRNA expression (TIMP-1) | other results |
| --- | --- | --- | --- | --- | --- |
| C[C@]12CC[C@@H]3c4ccc(O)cc4CC[C@H]3[C@@H]1CC[C@@H]2O [17β-estradiol] | declined | increased | – | – | procollagenase activity (procollagenase [2]): doubled |
| C[C@]12CC[C@H](OS(=O)(=O)O)CC1=CC[C@@H]1[C@@H]2CC[C@]2(C)C(=O)CC[C@@H]12 [DHEAS, dehydroepiandosterone sulfate] | – | – | – | – | increase in collagenase activity (collagenase): over 150% |
| CNC(=O)[C@@H](NC(=O)[C@H](CC(C)C)[C@H](O)C(=O)NO)C(C)(C)C [Marimastat] | – | – | – | – | plasma levels [3]: substantially higher than those required for MMP inhibition in vitro |
| CC(=O)[C@H]1CC[C@H]2[C@@H]3CCC4=CC(=O)CC[C@]4(C)[C@H]3CC[C@]12C [progesterone] | declined | increased | – | – | gene expression of matrix metalloproteinases [4]: repressed |
| IL-1β: cytokine | – | – | decrease | decrease | MMP-9 expression (MMP-9): stimulation; procollagenase production (procollagenase [2]): two-fold increase |
| TGF-β | – | – | augmented | augmented | – |
